Data from PMC12114947, “Evaluation of Violacein Metabolic Stability and Metabolite Identification in Human, Mouse, and Rat Liver Microsomes” (Pharmaceutics, 2025).
In brackets after ≈: the same amount, converted by molar mass.

Tests used:
Candida albicans = system: Candida albicans; design: method as in PMID 26428920; details: cited from earlier work
[1] = system: experimental autoimmune encephalomyelitis (EAE); design: method as in PMID 25938431; details: EAE mice, three days of treatment, intraperitoneal 3.5 mg/kg; reduced from 4; cited from earlier work
[2] = In vitro metabolic stability in mouse liver microsomes; assay type: in vitro ADME
Experimental: After removal, a pool consisting of livers from five naïve male rats and five C57BL male mice was immediately placed in a 50 mM Tris-HCl buffer, pH 7.4, containing 150 mM KCl. The livers were diced with scissors and washed three times with buffer, followed by homogenization with 20 mL of buffer in a Potter-type homogenizer (three cycles, with each cycle comprising three grindings of 1 min each at 1000 rpm). The homogenate was centrifuged at 10,000× g for 15 min at 4 °C. The resulting supernatant was then ultracentrifuged at 100,000× g for 60 min at 4 °C to obtain the microsomal pellet, which was resuspended in 50 mM HEPES-HCl buffer, pH 7.4, containing 20% glycerol and 1 mM EDTA.
(§1) The metabolic stability of volacein was assessed as described by Godoi et al. and Antunes et al.. Aliquots (4 µL) of 100 µM violacein working solution and 96 µL of the NADPH-regenerating system, containing 1.1 mM NADP^+, 10 mM glucose-6-phosphate, 1 U/mL glucose-6-phosphate dehydrogenase, 5 mM sodium citrate, and 66 mM magnesium chloride in 100 mM phosphate buffer, pH 7.4, were transferred to propylene tubes and pre-incubated for 5 min in an MTC 100 thermo shaker incubator (Miulab, Zhejiang, China) at 300 rpm and 37 °C. Subsequently, the metabolic reactions were initiated by adding 100 μL of microsomal proteins from HLMs, RLMs, and MLMs at a concentration of 2 mg/mL to the pre-incubated shaking tubes, resulting in final concentrations of 2 μM for violacein and 1 mg/mL for microsomal proteins. In this experiment, seven incubation times were planned for each species (0, 3, 5, 15, 30, 60, and 120 min), in triplicate. At each time interval, the reactions were stopped by adding 400 μL of ice-cold acetonitrile spiked with 10 µM omeprazole (IS) to each tube. Finally, the samples were vortexed for 5 min in a BenchMixer^TM XL (Benchmark, NJ, USA) and centrifuged at 12,000× g for 15 min at 4 °C (Hettich® Universal 320 R, Tuttlingen, Germany). The supernatants were transferred to a 96-well plate and 8 μL was injected into the LC-MS/MS system (see Section 2.3).
(§2) All incubations were performed simultaneously with positive and negative controls. The positive controls were prepared by incubating dapaconazole at the same conditions as violacein (final concentrations: 2 μM) and its metabolic stability was compared with previous studies. Similarly, the negative controls were prepared by incubating violacein in buffer solution, in the absence of microsome and cofactor solutions.
(§3) Violacein was analyzed using LC-MS/MS (LC-QQQ MS, LCMS8045, Shimadzu, Kyoto, Japan). Chromatographic separation was achieved on a Raptor^TM Biphenyl column (2.1 × 100 mm, 2.7 μm) at 40 °C. The mobile phases consisted of water (mobile phase A) and methanol (mobile phase B), both containing 2 mM ammonium formate and 0.1% (v/v) formic acid. A flow rate of 0.3 mL/min was used with an elution gradient starting at 20% mobile phase B and holding for 0.2 min, followed by a linear increase to 95% mobile phase B over 2 min that was then maintained for 1 min, with a return to the initial condition in 0.2 min. The total chromatographic run time was 5 min.
(§4) In vitro t1/2 was calculated using to the following equation [60, 61]:(1) t1/2=ln(2)/k where k is the slope of the log-linear regression graph of the percentage of drug remaining as a function of time.
CLint, in vitro was calculated using to the following equation [60, 61]:(2) CLint, in vitro=0.693/t1/2×Vincubation/mmicrosomes where Vincubation indicates the volume of the incubation in μL and mmicrosomes indicates the mass of microsomal proteins added to the incubation solution in mg. […]

in vitro = in vitro ADME; details: human
Experimental: as §1, §2, §3, §4
CLint, in vitro was calculated using to the following equation [60, 61]:(2) CLint, in vitro=0.693/t1/2×Vincubation/mmicrosomes where Vincubation indicates the volume of the incubation in μL and mmicrosomes indicates the mass of microsomal proteins added to the incubation solution in mg.
After determining CLint, in vitro, it was possible to calculate CLint, in vivo using allometric scaling, as follows:(3) CLint, in vivo=CLint, in vitro×mmicrosomes/gliver×mliver/kgper body weight where mmicrosomes is 61, 45, and 40 mg and represents the mass of microsomal protein per gram of liver (gliver) for rats, mice, and humans, respectively. The mliver is 40, 87.5, and 25.7 g/kg and represents the mass of liver per kilogram of body weight (kgper body weight) for rats, mice, and humans, respectively.
Metabolic stability was evaluated by linear regression analysis of the residual violacein after incubating 4 µM violacein with 2 mg/mL of HLMs, MLMs, and RLMs in the presence of the enzymatic cofactors required for CYP function in microsomes. Calculation of the in vitro violacein metabolic stability was achieved by plotting the remaining percentage of violacein on the y-axis and the incubation time on the x-axis (Figure 1a). […]

Caco-2 cells = system: Caco-2 cells; design: method as in PMID 16889929; details: cited from earlier work
[3] = system: P. falciparum W2 strain (chloroquine-resistant); design: method as in PMID 29642881, PMID 33689276; details: cited from earlier work

In the case of `O=C1NC(c2c[nH]c3ccc(O)cc23)=C/C1=C1\C(=O)Nc2ccccc21` [violacein], the MIC (Candida albicans) is listed as 8 µg/mL (≈ 23.3 µM), the Maximum clinical score [1] is listed as 2 and the “CLint, in vitro” value ([2]; MLMs) is listed as 17.01 µL/min/mg. For the same compound, the “Ln Z” value ([2]; MLMs, time 0 min) was 4.605, the “Z (%), remaining percentage of violacein” value ([2]; MLMs, time 0 min) was 100% and the “Ln Z” value ([2]; MLMs, time 3 min) was 4.490. The “Z (%), remaining percentage of violacein” value ([2]; MLMs, time 3 min) was 89%, the “Ln Z” value ([2]; MLMs, time 5 min) was 4.379 and the “Z (%), remaining percentage of violacein” value ([2]; MLMs, time 5 min) was 80%. The “Ln Z” value ([2]; MLMs, time 15 min) was 4.244, the “Z (%), remaining percentage of violacein” value ([2]; MLMs, time 15 min) was 70% and the “Ln Z” value ([2]; MLMs, time 30 min) was 4.022. The “Z (%), remaining percentage of violacein” value ([2]; MLMs, time 30 min) was 56%, the “Ln Z” value ([2]; MLMs, time 60 min) was 3.715 and the “Z (%), remaining percentage of violacein” value ([2]; MLMs, time 60 min) was 41%. For the same compound, the “Ln Z” value ([2]; MLMs, time 120 min) was 3.385, the “Slope (k), metabolism rate constant” value ([2]; MLMs, ln remaining % vs incubation time) was “y = −0.0085x + 4.3405 r^2 = 0.9554 Slope (k) = 0.0085” and the microsomal CLint at 2 µM ([2]; male, C57BL, mouse, mouse liver microsomes, pH 7.4, MLMs) was 17 µL/min/mg. The CLint scaled at 2 µM ([2]; male, C57BL, mouse, mouse liver microsomes, pH 7.4, mouse, extrapolated from CLint, in vitro by allometric scaling, read-out: CLint, in vivo) was 67 mL/min/kg, the half-life at 2 µM ([2]; male, C57BL, mouse, mouse liver microsomes, pH 7.4, MLMs, 2 μM violacein, 1 mg/mL microsomal protein, NADPH-regenerating system, 37 °C, n = 3, read-out: In vitro elimination half-life (t1/2)) was 1.35 h and the “CLint, in vivo” value ([2]; mouse, extrapolated from CLint, in vitro by allometric scaling) was 66.99 mL/min/kg. For the same compound, the “Ln Z” value (in vitro; 0 min, 2 µM, pH 7.4) was 4.605, the “Slope (k), metabolism rate constant” value (in vitro; 2 µM, pH 7.4) was “y = −0.0032x + 4.3894 r^2 = 0.9651 Slope (k) = 0.0032” and the “Ln Z” value (in vitro; 3 min, 2 µM, pH 7.4) was 4.462. The “Ln Z” value (in vitro; 5 min, 2 µM, pH 7.4) was 4.417, the “Ln Z” value (in vitro; 15 min, 2 µM, pH 7.4) was 4.316 and the “Ln Z” value (in vitro; 30 min, 2 µM, pH 7.4) was 4.277. The “Ln Z” value (in vitro; 60 min, 2 µM, pH 7.4) was 4.183, the “Ln Z” value (in vitro; 120 min, 2 µM, pH 7.4) was 4.017 and the “Z (%), remaining percentage of violacein” value (in vitro; microsomes, 0 h, 2 µM, pH 7.4) was 100%. The “CLint, in vivo” value (in vitro; microsomes, 2 µM, pH 7.4) was 6.58 mL/min/kg, the “Z (%), remaining percentage of violacein” value (in vitro; microsomes, 0.05 h, 2 µM, pH 7.4) was 87% and the “Z (%), remaining percentage of violacein” value (in vitro; microsomes, 5 min, 2 µM, pH 7.4) was 83%. For the same compound, the “Z (%), remaining percentage of violacein” value (in vitro; microsomes, 0.25 h, 2 µM, pH 7.4) was 75%, the “Z (%), remaining percentage of violacein” value (in vitro; microsomes, 0.5 h, 2 µM, pH 7.4) was 72% and the “Z (%), remaining percentage of violacein” value (in vitro; microsomes, 1 h, 2 µM, pH 7.4) was 66%. The half-life at 2 µM (in vitro; microsomes, pH 7.4) was 3.6 h, the microsomal CLint at 2 µM (in vitro; microsomes, pH 7.4) was 6.4 µL/min/mg and the CLint scaled at 2 µM (in vitro; microsomes, pH 7.4, CLint, in vivo) was 6.6 mL/min/kg. The IC50 (Caco-2 cells) was about 2000 nM and the IC50 [3] was 500 nM.
